Reference: PMC6979384, “Characterization of the plant homeodomain (PHD) reader family for their histone tail interactions” (Epigenetics & Chromatin, 2020)
Where no end group is shown, it is not given here.

Columns and labels:
Experiment in all cases: Histone peptide microarray
Assay type in all cases: binding, human
[1] = system: RAG2; conditions: RAG2, GST-tagged; arrays performed twice, n of 4
Method in brief: (§1)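 Binding read as mean relative signal from 4 replicates; microarray held 293 synthetic histone peptides with single or combinatorial PTMs. Each GST-tagged PHD reader was applied at 0.5 μM using the optimized Petell protocol.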

[2] = system: TRIM66 (PB); conditions: TRIM66 (PB), GST-tagged; arrays performed twice, n of 4
Method in brief: as §1

[3] = system: KDM5B (1); conditions: KDM5B (1), GST-tagged; arrays performed twice, n of 4
Method in brief: as §1

[4] = system: ING2; conditions: ING2, GST-tagged; arrays performed twice, n of 4
Method in brief: as §1

[5] = system: PHF23; conditions: PHF23, GST-tagged; arrays performed twice, n of 4
Method in brief: as §1

[6] = system: DIDO1; conditions: DIDO1, GST-tagged; arrays performed twice, n of 4
Method in brief: as §1

[7] = system: PHRF1 (RP); conditions: PHRF1 (RP), GST-tagged; arrays performed twice, n of 4
Method in brief: as §1

[8] = system: ING3; conditions: ING3, GST-tagged; arrays performed twice, n of 4
Method in brief: as §1

[9] = system: ING5; conditions: ING5, GST-tagged; arrays performed twice, n of 4
Method in brief: as §1

[10] = system: KDM5A (3); conditions: KDM5A (3), GST-tagged; arrays performed twice, n of 4
Method in brief: as §1

[11] = system: BAZ2B; conditions: BAZ2B, GST-tagged; arrays performed twice, n of 4
Method in brief: as §1

[12] = system: AIRE (PP); conditions: AIRE (PP), GST-tagged; arrays performed twice, n of 4
Method in brief: as §1

[13] = system: ING1; conditions: ING1, GST-tagged; arrays performed twice, n of 4
Method in brief: as §1

[14] = system: DPF2 (PPC2W2); conditions: DPF2 (PPC2W2), GST-tagged; arrays performed twice, n of 4
Method in brief: as §1

[15] = system: CHD4 (PPCC); conditions: CHD4 (PPCC), GST-tagged; arrays performed twice, n of 4
Method in brief: as §1

[16] = system: CHD5 (PCC); conditions: CHD5 (PCC), GST-tagged; arrays performed twice, n of 4
Method in brief: as §1

[17] = system: KDM5A (1); conditions: KDM5A (1), GST-tagged; arrays performed twice, n of 4
Method in brief: as §1

[18] = system: SP140L; conditions: SP140L, GST-tagged; arrays performed twice, n of 4
Method in brief: as §1

[19] = system: BPTF (PB); conditions: BPTF (PB), GST-tagged; arrays performed twice, n of 4
Method in brief: as §1

[20] = system: PHF2; conditions: PHF2, GST-tagged; arrays performed twice, n of 4
Method in brief: as §1

[21] = system: KDM7A; conditions: KDM7A, GST-tagged; arrays performed twice, n of 4
Method in brief: as §1

[22] = system: PHF8; conditions: PHF8, GST-tagged; arrays performed twice, n of 4
Method in brief: as §1

[23] = system: PHF13; conditions: PHF13, GST-tagged; arrays performed twice, n of 4
Method in brief: as §1

[24] = system: KDM4C (TTP); conditions: KDM4C (TTP), GST-tagged; arrays performed twice, n of 4
Method in brief: as §1

[25] = system: MLL5; conditions: MLL5, GST-tagged; arrays performed twice, n of 4
Method in brief: as §1

[26] = system: PHF21A; conditions: PHF21A, GST-tagged; arrays performed twice, n of 4
Method in brief: as §1

[27] = system: CHD5 (PPCC); conditions: CHD5 (PPCC), GST-tagged; arrays performed twice, n of 4
Method in brief: as §1

[28] = system: ING4; conditions: ING4, GST-tagged; arrays performed twice, n of 4
Method in brief: as §1

[29] = system: KDM5B (3); conditions: KDM5B (3), GST-tagged; arrays performed twice, n of 4
Method in brief: as §1

[30] = system: MORC3 (CW); conditions: MORC3 (CW), GST-tagged; arrays performed twice, n of 4
Method in brief: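 Readout is array binding signal, reported as the mean and standard deviation over four replicates. Each purified GST-fused PHD domain was incubated at 0.5 μM with a library of 293 modified histone peptides.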

[31] = system: TAF3; conditions: TAF3, GST-tagged; arrays performed twice, n of 4
Method in brief: as §1

Substance | Array Heatmap value (peptide array binding signal) [1] | Array Heatmap value (peptide array binding signal) [2] | Array Heatmap value (peptide array binding signal) [3] | Array Heatmap value (peptide array binding signal) [4] | Array Heatmap value (peptide array binding signal) [5] | Array Heatmap value (peptide array binding signal) [6] | Array Heatmap value (peptide array binding signal) [7] | Array Heatmap value (peptide array binding signal) [8] | Array Heatmap value (peptide array binding signal) [9] | Array Heatmap value (peptide array binding signal) [10] | Array Heatmap value (peptide array binding signal) [11] | Array Heatmap value (peptide array binding signal) [12] | Array Heatmap value (peptide array binding signal) [13] | Array Heatmap value (peptide array binding signal) [14] | Array Heatmap value (peptide array binding signal) [15] | Array Heatmap value (peptide array binding signal) [16] | Array Heatmap value (peptide array binding signal) [17] | Array Heatmap value (peptide array binding signal) [18] | Array Heatmap value (peptide array binding signal) [19] | Array Heatmap value (peptide array binding signal) [20] | other results
H4K12ac + K20ac: H4 1-23 | 0.2498 | 0.5961 | 0.6403 | 0.5908 | 0.5334 | 0.604 | 0.4 | 0.496 | 0.3842 | 0.3797 | 0.5161 | 0.5505 | 0.4954 | 0.6377 | 0.6135 | 0.8332 | 0.5024 | 0.3715 | 0.3685 | 0.4316 | Array Heatmap value (peptide array binding signal) [21]: 0.4248; Array Heatmap value (peptide array binding signal) [22]: 0.3219; Array Heatmap value (peptide array binding signal) [23]: 0.6532; Array Heatmap value (peptide array binding signal) [24]: 0.5414; Array Heatmap value (peptide array binding signal) [25]: 0.5351; Array Heatmap value (peptide array binding signal) [26]: 0.5207; Array Heatmap value (peptide array binding signal) [27]: 0.5873; Array Heatmap value (peptide array binding signal) [28]: 0.4824; Array Heatmap value (peptide array binding signal) [29]: 0.5497; Array Heatmap value (peptide array binding signal) [30]: 0.3391; Array Heatmap value (peptide array binding signal) [31]: 0.2733
H4K12ac + KQ5,8,16,20: H4 1-23 (SGRGQGGQGLGK(Ac)GGAQRHRQVLR; UniProt P62805 2-24, looked up, variant K5Q K8Q K16Q K20Q) | 0.2487 | 0.6047 | 0.6598 | 0.6036 | 0.5714 | 0.7417 | 0.4941 | 0.4727 | 0.347 | 0.4384 | 0.4631 | 0.4232 | 0.553 | 0.6849 | 0.5868 | 0.8241 | 0.4416 | 0.3381 | 0.3429 | 0.578 | Array Heatmap value (peptide array binding signal) [21]: 0.3252; Array Heatmap value (peptide array binding signal) [22]: 0.3437; Array Heatmap value (peptide array binding signal) [23]: 0.611; Array Heatmap value (peptide array binding signal) [24]: 0.445; Array Heatmap value (peptide array binding signal) [25]: 0.5826; Array Heatmap value (peptide array binding signal) [26]: 0.4355; Array Heatmap value (peptide array binding signal) [27]: 0.5319; Array Heatmap value (peptide array binding signal) [28]: 0.4387; Array Heatmap value (peptide array binding signal) [29]: 0.4684; Array Heatmap value (peptide array binding signal) [30]: 0.3596; Array Heatmap value (peptide array binding signal) [31]: 0.2598
H4K12me1: H4 1-23 [Peptide H4K12me1] | 0.2114 | 0.515 | 0.6336 | 0.5919 | 0.4708 | 0.5928 | 0.3919 | 0.3932 | 0.2899 | 0.3966 | 0.3991 | 0.4018 | 0.4711 | 0.6545 | 0.5189 | 0.7543 | 0.4194 | 0.3238 | 0.2963 | 0.4095 | Array Heatmap value (peptide array binding signal) [21]: 0.3046; Array Heatmap value (peptide array binding signal) [22]: 0.3037; Array Heatmap value (peptide array binding signal) [23]: 0.5207; Array Heatmap value (peptide array binding signal) [24]: 0.4116; Array Heatmap value (peptide array binding signal) [25]: 0.4865; Array Heatmap value (peptide array binding signal) [26]: 0.4184; Array Heatmap value (peptide array binding signal) [27]: 0.4573; Array Heatmap value (peptide array binding signal) [28]: 0.3881; Array Heatmap value (peptide array binding signal) [29]: 0.384; Array Heatmap value (peptide array binding signal) [30]: 0.309; Array Heatmap value (peptide array binding signal) [31]: 0.2302
